Results as given in ChEMBL document CHEMBL3877337, “Crystal Structures of ERAP2 Complexed with Inhibitors Reveal Pharmacophore Requirements for Optimizing Inhibitor Potency” (ACS Med Chem Lett, 2017).
pIC50: −log10 of the molar value.

Target: Endoplasmic reticulum aminopeptidase 2 (Homo sapiens, UniProt Q6P179)
Test: Inhibition of recombinant ERAP2 (unknown origin) expressed in baculovirus infected insect cells using L-arginine-7-amido-4-methylcoumarine as substrate by spectrofluorimetric assay

Sequence of Endoplasmic reticulum aminopeptidase 2 (Q6P179 whole entry): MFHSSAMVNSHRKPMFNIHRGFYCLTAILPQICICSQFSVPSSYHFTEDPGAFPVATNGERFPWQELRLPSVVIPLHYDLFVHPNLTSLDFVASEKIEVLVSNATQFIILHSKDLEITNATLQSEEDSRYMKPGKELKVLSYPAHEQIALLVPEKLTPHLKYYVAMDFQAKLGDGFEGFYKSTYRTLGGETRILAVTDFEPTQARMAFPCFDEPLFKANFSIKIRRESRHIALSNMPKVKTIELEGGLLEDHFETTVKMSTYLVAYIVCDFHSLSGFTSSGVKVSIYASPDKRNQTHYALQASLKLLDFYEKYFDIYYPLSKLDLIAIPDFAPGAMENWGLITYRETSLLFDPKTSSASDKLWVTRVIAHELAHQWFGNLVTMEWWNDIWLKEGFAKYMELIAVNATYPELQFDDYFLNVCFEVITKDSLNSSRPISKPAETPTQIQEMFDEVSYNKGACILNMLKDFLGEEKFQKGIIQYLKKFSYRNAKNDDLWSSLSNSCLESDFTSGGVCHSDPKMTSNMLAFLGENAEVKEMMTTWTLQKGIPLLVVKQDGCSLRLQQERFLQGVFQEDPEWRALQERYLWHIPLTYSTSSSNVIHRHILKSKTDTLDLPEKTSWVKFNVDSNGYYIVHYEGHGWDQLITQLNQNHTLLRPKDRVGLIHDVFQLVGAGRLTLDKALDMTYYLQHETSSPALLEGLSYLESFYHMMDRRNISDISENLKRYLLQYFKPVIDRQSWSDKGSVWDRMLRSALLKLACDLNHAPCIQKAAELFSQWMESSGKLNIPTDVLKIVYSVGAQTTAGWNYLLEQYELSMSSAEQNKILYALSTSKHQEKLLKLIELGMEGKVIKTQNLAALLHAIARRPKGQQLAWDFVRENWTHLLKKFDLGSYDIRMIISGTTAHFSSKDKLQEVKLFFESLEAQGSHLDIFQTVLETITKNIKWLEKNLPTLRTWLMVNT

`O=C(NO)C(Cc1ccc(F)cc1)C(=O)NCc1ccccc1` (stereo unspecified) was tested. Which pIC50 did it give?
The pIC50 was under 4.00.
